Results from patent publication US20130225633A1, “PHENYL HETEROCYCLOALKYL GLUCOCORTICOID RECEPTOR MODULATORS” (Corcept Therapeutics, Inc., priority 2012, published 2013).

Tests used:
[1] = biological target: T1, human recombinant glucocorticoid receptor (Homo sapiens, UniProt P04150); assay: Glucocorticoid receptor binding displacement assay with 3H-dexamethasone (Example 22); conditions: Examples 1-15: 3H-dexamethasone displacement assay of Example 22; read-out: GR binding Ki
T1 construct: This GR was a full-length steroid hormone receptor; host or cells: baculovirus-infected insect cells
T1 sequence (P04150 1-777): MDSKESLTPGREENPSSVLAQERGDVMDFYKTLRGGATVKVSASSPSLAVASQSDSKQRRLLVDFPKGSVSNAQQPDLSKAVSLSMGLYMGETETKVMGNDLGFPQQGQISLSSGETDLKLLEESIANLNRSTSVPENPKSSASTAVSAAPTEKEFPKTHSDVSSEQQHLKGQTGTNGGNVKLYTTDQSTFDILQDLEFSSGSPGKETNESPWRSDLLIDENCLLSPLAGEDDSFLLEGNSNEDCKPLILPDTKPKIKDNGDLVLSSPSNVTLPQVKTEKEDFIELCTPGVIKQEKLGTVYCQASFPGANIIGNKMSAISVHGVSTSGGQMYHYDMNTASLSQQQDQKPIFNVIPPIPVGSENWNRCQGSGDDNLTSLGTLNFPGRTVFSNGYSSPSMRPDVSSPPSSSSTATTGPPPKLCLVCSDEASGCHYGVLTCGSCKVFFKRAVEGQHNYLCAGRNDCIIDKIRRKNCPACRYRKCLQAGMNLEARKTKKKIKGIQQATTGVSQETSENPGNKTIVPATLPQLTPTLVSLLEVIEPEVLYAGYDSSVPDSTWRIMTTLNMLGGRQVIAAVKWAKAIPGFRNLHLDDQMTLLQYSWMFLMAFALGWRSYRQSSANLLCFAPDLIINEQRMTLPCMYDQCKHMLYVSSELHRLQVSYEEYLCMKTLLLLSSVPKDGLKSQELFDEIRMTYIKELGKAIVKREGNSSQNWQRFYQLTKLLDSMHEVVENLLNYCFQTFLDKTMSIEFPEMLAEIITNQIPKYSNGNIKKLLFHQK
Protocol: Binding protocol: Compounds were tested in a binding displacement assay using human recombinant glucocorticoid receptor with ^3H-dexamethasone as the ligand. The source of the receptor was recombinant baculovirus-infected insect cells. This GR was a full-length steroid hormone receptor likely to be associated with heat-shock and other endogenous proteins.
For the IC50 determinations, test compounds were tested at 6 concentrations in duplicate. Test compounds were diluted from 10 mM stock in 100% DMSO. The tested solutions were prepared at 2× final assay concentration in 2% DMSO/assay buffer.
All reagents and the assay plate were kept on ice during the addition of reagents. The reagents were added to wells of a v-bottomed polypropylene plate in the following order: 25 μl of 10 nM 3H-dexamethasone solution, 50 μl of TB/NSB/compound solution and 25 μl of 2 nM GR solution. After the additions, the incubation mixture was mixed and incubated for 2.5 hrs at 4° C.
After 2.5 hrs incubation, unbound counts were removed with dextran coated charcoal (DCC) as follows: 15 μl of DCC solution (10% DCC in assay buffer) was added to all wells and mixed (total volume 115 μl). The plate was centrifuged at 4000 rpm for 10 minutes at 4° C. 75 μl of the supernatants was carefully pipetted into an optiplate. 150 μl of scintillation cocktail were added (Microscint-40, Perkin Elmer). The plate was vigorously shaken for approximately 10 minutes and counted on a Topcount.
The IC50 values were converted to Ki (the inhibition constant) using the Cheng-Prusoff equation.
Reagents: Assay buffer: 10 mM potassium phosphate buffer pH 7.6 containing 5 mM DTT, 10 mM sodium molybdate, 100 μM EDTA and 0.1% BSA.

[2] = biological target: T2, glucocorticoid receptors (GR) in SW1353/MMTV-5 cells (Homo sapiens, UniProt P04150); assay: GR reporter gene assay using SW1353/MMTV-5 cells (Example 24); assay type: cell-based
T2 construct: contains endogenous glucocorticoid receptors; endogenous in cells; host or cells: SW1353/MMTV-5 (human chondrosarcoma, stably transfected with pMAMneo-Luc reporter only)
T2 sequence (P04150 1-777): T1 sequence (P04150 1-777)
Protocol: SW1353/MMTV-5 is an adherent human chondrosarcoma cell line that contains endogenous glucocorticoid receptors. It was transfected with a plasmid (pMAMneo-Luc) encoding firefly luciferase located behind a glucocorticoid-responsive element (GRE) derived from a viral promoter (long terminal repeat of mouse mammary tumor virus). A stable cell line SW1353/MMTV-5 was selected with geneticin, which was required to maintain this plasmid.
SW1353/MMTV-5 cells were distributed in 96-well plates and incubated in medium (without geneticin) for 24 hrs.

SMILES | Ki [1] | Ki [2]
CCOC(=O)[C@]12Cc3cnn(-c4ccc(F)cc4)c3C=C1CCN(S(=O)(=O)c1cccc(N3CCCC3)c1)C2 [Example 14, (R)-1-(4-Fluoro-phenyl)-6-[3-(pyrrolidin-1-yl)-benzenesulfonyl]-1,4,5,6,7,8-hexahydro-1,2,6-triaza-cyclopenta[b]naphthalene-4a-carboxylic acid ethyl ester] | 0.5 to 1 nM | 10 to 20 nM
O=S(=O)(c1cccc(N2CCCC2)c1)N1CCC2=Cc3c(cnn3-c3ccc(F)cc3)C[C@]2(COCC2CC2)C1 [Example 3, (R)-4a-Cyclopropylmethoxymethyl-1-(4-fluorophenyl)-6-[3-(pyrrolidin-1-yl)-benzenesulfonyl]-4,4a,5,6,7,8-hexahydro-1H-1,2,6-triaza-cyclopenta[b]naphthalene] | ≥ 1 nM | < 10 nM
O=S(=O)(c1cccc(N2CC[C@H](F)C2)c1)N1CCC2=Cc3c(cnn3-c3ccc(F)cc3)C[C@]2(COCC2CC2)C1 [Example 2, (R)-4a-Cyclopropylmethoxymethyl-1-(4-fluorophenyl)-6-[3-((S)-3-fluoropyrrolidin-1-yl)-phenyl-3-sulfonyl]-4,4a,5,6,7,8-hexahydro-1H-1,2,6-triaza-cyclopenta[b]naphthalene] | 0.5 to 1 nM | < 10 nM
O=S(=O)(c1ccc(N2CC[C@@H](F)C2)cc1)N1CCC2=Cc3c(cnn3-c3ccc(F)cc3)C[C@]2(COCC2CC2)C1 [Example 7, (R)-4a-Cyclopropylmethoxymethyl-1-(4-fluoro-phenyl)-6-[4-((R)-3-fluoro-pyrrolidin-1-yl)-benzenesulfonyl]-4,4a,5,6,7,8-hexahydro-1H-1,2,6-triaza-cyclopenta[b]naphthalene] | < 0.5 nM | < 10 nM
COC[C@]12Cc3cnn(-c4ccc(F)cc4)c3C=C1CCN(S(=O)(=O)c1cccc(N3CCCC3)c1)C2 [Example 6, (R)-1-(4-Fluoro-phenyl)-4a-methoxymethyl-6-[3-(pyrrolidin-1-yl)-benzenesulfonyl)-4,4a,5,6,7,8-hexahydro-1H-1,2,6-triaza-cyclopenta[b]naphthalene] | 0.5 to 1 nM | 10 to 20 nM
COC[C@]12Cc3cnn(-c4ccc(F)cc4)c3C=C1CCN(S(=O)(=O)c1ccc(N3CCCC3)cc1)C2 [Example 10, (R)-1-(4-Fluoro-phenyl)-6-[4-(pyrrolidin-1-yl)-benzenesulfonyl]-4a-methoxymethyl-4,4a,5,6,7,8-hexahydro-1H-1,2,6-triaza-cyclopenta[b]naphthalene] | 0.5 to 1 nM | > 20 nM
COC[C@]12Cc3cnn(-c4ccc(F)cc4)c3C=C1CCN(S(=O)(=O)c1cccc(N3CC[C@@H](F)C3)c1)C2 [Example 4, (R)-1-(4-Fluorophenyl)-6-[3-((R)-3-fluoropyrrolidin-1-yl)-benzenesulfonyl]-4a-methoxymethyl-4,4a,5,6,7,8-hexahydro-1H-1,2,6-triaza-cyclopenta[b]naphthalene] | ≥ 1 nM | 10 to 20 nM
O=S(=O)(c1ccc(N2CCCC2)cc1)N1CCC2=Cc3c(cnn3-c3ccc(F)cc3)C[C@]2(COCC2CC2)C1 [Example 8, (R)-4a-Cyclopropylmethoxymethyl-1-(4-fluoro-phenyl)-6-[4-(pyrrolidin-1-yl)-benzenesulfonyl]-4,4a,5,6,7,8-hexahydro-1H-1,2,6-triaza-cyclopenta[b]naphthalene] | ≥ 1 nM | < 10 nM
COC[C@]12Cc3cnn(-c4ccc(F)cc4)c3C=C1CCN(S(=O)(=O)c1ccc(N3CC[C@@H](F)C3)cc1)C2 [Example 9, (R)-1-(4-Fluoro-phenyl)-6-[4-((R)-3-fluoro-pyrrolidin-1-yl)-benzenesulfonyl]-4a-methoxymethyl-4,4a,5,6,7,8-hexahydro-1H-1,2,6-triaza-cyclopenta[b]naphthalene] | 0.5 to 1 nM | 10 to 20 nM
COC[C@]12Cc3cnn(-c4ccc(F)cc4)c3C=C1CCN(S(=O)(=O)c1cccc(N3CC[C@H](F)C3)c1)C2 [Example 5, (R)-1-(4-Fluorophenyl)-6-[3-((S)-3-fluoropyrrolidin-1-yl)-benzenesulfonyl]-4a-methoxymethyl-4,4a,5,6,7,8-hexahydro-1H-1,2,6-triaza-cyclopenta[b]naphthalene] | 0.5 to 1 nM | < 10 nM
O=C(OCF)[C@]12Cc3cnn(-c4ccc(F)cc4)c3C=C1CCN(S(=O)(=O)c1cccc(N3CCCC3)c1)C2 [Example 15, (R)-1-(4-Fluoro-phenyl)-6-[3-(pyrrolidin-1-yl)-benzenesulfonyl]-1,4,5,6,7,8-hexahydro-1,2,6-triaza-cyclopenta[b]naphthalene-4a-carboxylic acid fluoromethyl ester] | 0.5 to 1 nM | > 20 nM
O=S(=O)(c1cccc(N2CC[C@@H](F)C2)c1)N1CCC2=Cc3c(cnn3-c3ccc(F)cc3)C[C@]2(COCC2CC2)C1 [Example 1, (R)-4a-Cyclopropylmethoxymethyl-1-(4-fluorophenyl)-6-[3-((R)-3-fluoropyrrolidin-1-yl)-benzenesulfonyl]-4,4a,5,6,7,8-hexahydro-1H-1,2,6-triaza-cyclopenta[b]naphthalene] | ≥ 1 nM | < 10 nM
COC(=O)[C@]12Cc3cnn(-c4ccc(F)cc4)c3C=C1CCN(S(=O)(=O)c1cccc(N3CC[C@@H](F)C3)c1)C2 [Example 12, (R)-1-(4-Fluoro-phenyl)-6-[3-((R)-3-fluoro-pyrrolidin-1-yl)-benzenesulfonyl]-1,4,5,6,7,8-hexahydro-1,2,6-triaza-cyclopenta[b]naphthalene-4a-carboxylic acid methyl ester] | ≥ 1 nM | > 20 nM
O=C(OCF)[C@]12Cc3cnn(-c4ccc(F)cc4)c3C=C1CCN(S(=O)(=O)c1cccc(N3CC[C@@H](F)C3)c1)C2 [Example 13, (R)-1-(4-Fluoro-phenyl)-6-[3-((R)-3-fluoro-pyrrolidin-1-yl)-benzenesulfonyl]-1,4,5,6,7,8-hexahydro-1,2,6-triaza-cyclopenta[b]naphthalene-4a-carboxylic acid fluoromethyl ester] | 0.5 to 1 nM | > 20 nM
CCOC(=O)[C@]12Cc3cnn(-c4ccc(F)cc4)c3C=C1CCN(S(=O)(=O)c1cccc(N3CC[C@@H](F)C3)c1)C2 [Example 11, (R)-1-(4-Fluoro-phenyl)-6-[3-((R)-3-fluoro-pyrrolidin-1-yl)-benzenesulfonyl]-1,4,5,6,7,8-hexahydro-1,2,6-triaza-cyclopenta[b]naphthalene-4a-carboxylic acid ethyl ester] | 0.5 to 1 nM | 10 to 20 nM
